Results reported in US20040072746A1, “Inhibitors of monocarboxylate transport” (priority 2001, published 2004).

Key:
Jurkat T-cell membranes = assay type: binding, human
Protocol: Cells were harvested by centrifugation at 1500 g for 10 minutes. The cell pellets were washed twice with phosphate buffered saline (PBS) and centrifuged as above. The final cell pellet was resuspended in lysis buffer (50 mM HEPES (pH 7.8), 50 mM KCl, 10% glycerol, 0.1 mM EDTA, 1 mM DTT) and lysed by nitrogen cavitation. Unlysed cells and nuclei were removed by centrifugation at 1500 g for 10 minutes. The supernatant was then centrifuged at 100,000 g for 30 minutes at 4° C., and the pellet resuspended and homogenised in assay buffer (50 mM HEPES (pH 7.5), 1 mM EDTA, 150 mM NaCl). Aliquots of membrane preparation were stored at −80° C. until use.
Frozen Jurkat cell membranes were thawed on ice and then homogenised. Wheatgerm agglutinin-linked Scintillation Proximity Assay beads (Amersham) were rehydrated in assay buffer to a concentration of 100 mg/ml. 2 ml of Jurkat membranes were added per 0.5 ml (50 mg) of SPA beads and incubated overnight with constant agitation to allow the beads to coat with Jurkat membranes. […] 10 μl of test compound and 10 μl of radioligand were incubated with 180 μl of SPA beads and membranes (0.04 mg beads). […] The plates were incubated for 3 hours at room temperature before quantitation of radioactivity proximal to the SPA beads by scintillation counting.

MCT1 = biological target: T1, MCT1 (Homo sapiens, UniProt P53985, D490E); assay: MCT filter binding assay, yeast membranes, radioligand specific binding; design: made in house; host or cells: Saccharomyces cerevisiae BY4742 (jen1 deletion), membrane preparation; plasmid pACES14-hMCT1; details: ~2.5 nM radioligand
T1 sequence (P53985 1-500 D490E): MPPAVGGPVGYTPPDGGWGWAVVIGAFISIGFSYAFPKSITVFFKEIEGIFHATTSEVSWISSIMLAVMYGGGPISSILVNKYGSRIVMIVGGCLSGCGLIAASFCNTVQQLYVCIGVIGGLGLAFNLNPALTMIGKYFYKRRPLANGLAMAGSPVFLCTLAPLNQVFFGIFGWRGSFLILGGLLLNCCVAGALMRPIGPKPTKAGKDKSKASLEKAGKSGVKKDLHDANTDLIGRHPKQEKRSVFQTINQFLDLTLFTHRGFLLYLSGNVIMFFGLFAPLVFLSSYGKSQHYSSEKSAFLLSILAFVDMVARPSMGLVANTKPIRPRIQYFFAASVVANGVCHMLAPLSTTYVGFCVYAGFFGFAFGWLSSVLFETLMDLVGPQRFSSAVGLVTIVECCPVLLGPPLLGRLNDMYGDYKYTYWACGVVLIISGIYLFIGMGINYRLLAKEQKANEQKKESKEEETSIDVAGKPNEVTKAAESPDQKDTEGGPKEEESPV
Protocol: (§1) For yeast cells transformed with expression plasmids containing the human MCT 1-4 ORFs the ability of membrane preparations to bind radioligand was determined using a single ligand concentration/multi protein concentration binding assay. This generated an estimate of the amount of active binding protein present in each membrane preparation. The ligand concentration used will give an estimate of Bmax that is approximately 90% of the true value. 10 μl of ligand A, B or C that had been diluted 50 fold with assay buffer (50 mM HEPES, 0.1 mM EDTA, 0.15 M NaCl, pH 7.5, 0.5% BSA) was dispensed into wells of a polypropylene microtitre plate. This gives a final radiolabelled ligand concentration of ˜2.5 nM. […] The membranes were diluted to give a known amount/180 μl assay buffer. This is typically in the […] range. For the membranes with high binding site number a more dilute membrane preparation should be added. 180 μl of each membrane solution was then added to each well and incubated at 2 hours at room temperature with shaking. The membranes were harvested onto GF-B filter plates and washed with assay buffer without BSA, dried, scintillant added and counts detected using the relevant program for each ligand on a Packard Top Count plate reader.

human MCT3 = biological target: T2, human MCT3 (Homo sapiens, UniProt O95907); assay: as above; details: ~2.5 nM radioligand
T2 construct: the full length open reading frame of human MCT3 was subcloned into the S. cerevisiae expression plasmid pACES14; made in house; host or cells: Saccharomyces cerevisiae BY4742 (jen1 deletion), membrane preparation; plasmid pACES14-hMCT3
T2 sequence (O95907 1-504): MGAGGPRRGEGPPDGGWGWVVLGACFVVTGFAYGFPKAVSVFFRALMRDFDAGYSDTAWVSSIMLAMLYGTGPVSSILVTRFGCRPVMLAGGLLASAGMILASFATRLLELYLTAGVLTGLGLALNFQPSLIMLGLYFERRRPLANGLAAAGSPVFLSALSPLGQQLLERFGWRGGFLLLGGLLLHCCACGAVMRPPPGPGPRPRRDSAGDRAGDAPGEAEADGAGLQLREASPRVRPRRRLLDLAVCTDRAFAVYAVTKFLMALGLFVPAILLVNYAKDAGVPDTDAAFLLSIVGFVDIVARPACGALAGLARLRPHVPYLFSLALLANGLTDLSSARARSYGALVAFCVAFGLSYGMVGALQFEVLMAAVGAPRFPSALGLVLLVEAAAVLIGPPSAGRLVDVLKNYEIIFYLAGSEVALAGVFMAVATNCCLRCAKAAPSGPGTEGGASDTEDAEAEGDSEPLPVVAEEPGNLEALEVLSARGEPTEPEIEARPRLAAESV
Protocol: as §1

[1] = MCT filter binding assay, yeast membranes transformed with vector only; details: ~2.5 nM radioligand
Protocol: as §1

In the case of `CC(C)Cc1nn(C)c(=O)c2c(SCCCO)n(Cc3ccccc3[125I])cc12` [Ligand A, 2,6-Dihydro-7-[(3-hydroxypropyl)thio]-6-[(2-[^125I]iodophenyl)methyl]-2-methyl-4-(2-methylpropyl)-1H-pyrrolo[3,4-d]pyridazin-1-one], the “125I-ligand A binding (cpm), Specific binding (Total - Non-specific)” value (Jurkat T-cell membranes) is reported as 1991 cpm, the “125I-ligand A binding (cpm), Total binding” value (Jurkat T-cell membranes; approximately 0.1 nM radioligand, vehicle alone) is reported as 2490 ± 32 cpm and the “125I-ligand A binding (cpm), Non-specific binding” value (Jurkat T-cell membranes; in the presence of 1 μM Ligand 1) is reported as 499 ± 20 cpm. For the same molecule, the “Specific binding (cpm) Average” value (MCT1; MCT1 (2 ug)) was 88841 cpm, the “Specific binding (cpm) Average” value (MCT1; MCT1 (20 ug)) was 177453 cpm and the “Specific binding (cpm) Average” value (human MCT3; MCT3 (2 ug)) was 0 cpm. For the same molecule, the “Specific binding (cpm) Average” value (human MCT3; MCT3 (20 ug)) was 0 cpm, the “Specific binding (cpm) Average” value ([1]; vector (2 ug)) was 1735 cpm and the “Specific binding (cpm) Average” value ([1]; vector (20 ug)) was 0 cpm.
